Experimental data as given in patent US20240208937A1, “Compounds and Their Use for Treatment of Hemoglobinopathies” (Bristol-Myers Squibb Company, priority 2022, published 2024).

Tests used:
Assay type in all cases: cell-based
[1] = tested on: fetal hemoglobin (HbF) in GCSF-mobilized human CD34+ cells; assay: HbF Induction Assay; conditions: 168 h; compound 1 μM, 7 days, erythroid-differentiated human CD34+ cells, flow cytometry; DMSO baseline 15% HbF positive cells
Description: The expansion, differentiation, and maturation of GCSF-mobilized human CD34^+ (STEMCELL Technologies Inc.) cells towards erythroid lineage cells were performed using a two-phase liquid culture model (Moutouh-de Parseval L A, el al. Pomalidomide and lenalidomide regulate erythropoiesis and fetal hemoglobin production in human CD34+ cells. J Clin Invest. 2008 January; 118(1):248-58). In the first phase, GCSF-mobilized human CD34^+ cells were cultured using StemSpan™-XF (STEMCELL Technologies Inc.) media supplemented with 1×BIT 9500, Penicillin-Streptomycin (50 U/mL), 100 ng/mL recombinant human (rh) SCF, 100 ng/mL rh Flt3-L, 20 ng/mL rh IL-3 and 10 ng/mL rh EPO and the growth of cells maintained in exponential phase for 7 days at 37° C. with 5% CO2 to support expansion and progenitor differentiation prior the second phase and treatment with compounds. In the second phase, culture media was changed to StemSpan™-XF media supplemented with 1×BIT 9500, Penicillin-Streptomycin (50 U/mL), 50 ng/mL rh SCF and 40 ng/mL rh EPO to promote further differentiation and maturation of the erythrocytes and to initiate treatment with compounds. Compounds were dispensed in duplicate at a final concentration of 1 μM in a final DMSO amount of 0.1%. Fresh compound was reapplied, and cell density was kept constant every 2 days. After 7 days, the cells were assessed for viability and fetal hemoglobin expression using flow cytometry. For viability analysis, eBioscience™ Fixable Viability Dye eFluor™ 780 (1:1000, eBioscience; Cat #65-0865-14) was added to the cells and kept in the dark for 10 minutes. For analysis of fetal hemoglobin (HbF), cells were fixed and permeabilized using Fixation Buffer (BioLegend; Cat #420801 and Intracellular staining permeabilization buffer (BioLegend, Cat #420201) following manufacturer's instructions. During permeabilization step, cells were stained with PE-labelled Mouse Anti-Human Fetal Hemoglobin (1:10, clone 2D12; BD Biosciences, Cat #BDB560041) incubated at room temperature for 20 minutes and protected from light. PE-labelled Mouse anti-IgG k, (1:10 clone MOPC-21; BD Biosciences, Cat# BDB551436) was used as an isotype control.
Viability, cell count, and fetal hemoglobin (HbF) levels were measured using an Attune NXT flow cytometer (Thermofisher) and the data analyzed using the FCS express software (De Novo Software). In Table 1 below, the effects of compounds of formula (I), formula (I′), formula (II), formula (II′), and formula (III) on % viable cells, viable cell count, on the % HbF positive cells and the median fluorescent intensity (MFI) of the HbF positive cell population compared to the DMSO controls can be viewed. All gates were set using the isotype negative control. The baseline % HbF positive cells for DMSO-treated control cells was 15%. Compounds of formula (I), formula (I′), formula (II), formula (II′), and formula (III) having HbF induction between 66% and 100% are level A. Compounds of formula (I), formula (I′), formula (II), formula (II′), and formula (III) having HbF induction between 33% and 66% are level B. Compounds of formula (I), formula (I′), formula (II), formula (II′), and formula (III) having HbF induction % less than 33% are level C. For certain compounds of formula (I), formula (I′), formula (II), formula (II′), and formula (III) % HbF induction values 0-33% (activity level C), between 33% and 66% (activity level B), and between 67% and 100% (activity level A) are shown in Table 2 below.

[2] = target: WIZ (Widely interspaced zinc finger) (Homo sapiens (Human), UniProt O95785+Q96SW2); assay: HUDEP-2 WIZ HiBiT degradation assay; conditions: HUDEP-2 WIZ HiBiT cells, 24 hours treatment, luminescence; for DC50: read-out: WIZ EC50
Description: (§1) The HiBiT degradation assay for WIZ and ZBTB7A in HUDEP-2 cells was performed as described below. HUDEP-2 cells engineered to express a HiBiT tag in either the WIZ (Widely interspaced zinc finger) or ZBTB7A (Zinc Finger And BTB Domain Containing 7A) proteins were maintained in low attachment flasks in StemSpan SFEM II media supplemented with Penicillin-Streptomycin (50 U/mL), rhSCF (50 ng/mL), rhEPO (3 IU/mL), dexamethasone (0.4 μg/mL) and doxycycline (1 μg/mL). Prior to start of the assay, cell count and viability were measured by trypan blue exclusion using the Vi-cell XR cell viability analyzer. For the HUDEP-2 WIZ HiBiT assay, cells were transferred to a 50 mL conical and centrifuged at 500 g for five minutes. Cells were resuspended in fresh StemSpan SFEM II media supplemented with Penicillin-Streptomycin (50 U/mL), rhSCF (50 ng/mL), rhEPO (3 IU/mL), dexamethasone (0.4 μg/mL) and doxycycline (1 μg/mL) at a density of 1.0×10^6 cells/ml. Forty microliters of cell suspension was dispensed into 384-well Low Flange White Flat Bottom Polystyrene TC-treated Microplates containing pre-dispensed compounds, using a VIAFLO 384 liquid hander, and placed in a 37° C. incubator with 5% CO2. […] After 24 hours of treatment, 40 μL Nano-Glo HiBiT Lytic Detection System reagent was dispensed into each well using a VIAFLO 384 liquid hander. Plates were incubated for 25 minutes at room temperature and the luminescence was read as relative luminescent units using the EnVision plate reader. EC50 and Y-min values were calculated using curves calculated from dotmatics software after the normalization to the DMSO control of 10 different concentrations: 10, 3.33, 1.11, 0.37, 0.12, 0.04 0.0137, 0.0046, 0.0015 and 0.0005 μM respectively.

[3] = target: ZBTB7A (Zinc Finger And BTB Domain Containing 7A) (Homo sapiens (Human), UniProt O95365+Q96SW2); assay: HUDEP-2 ZBTB7A HiBiT degradation assay; conditions: HUDEP-2 ZBTB7A HiBiT cells, 24 hours treatment, luminescence; for DC50: read-out: ZBTB7A EC50
Description: as §1
For the HUDEP-2 ZBTB7A HiBiT assay, cell count and viability were measured by trypan blue exclusion using the Vi-cell XR cell viability analyzer and the cells were transferred to a 50 mL conical and centrifuged at 500 g for five minutes. Cells were resuspended in fresh IMDM media supplemented with L-Glutamine (1×), Penicillin-Streptomycin (50 U/mL), holo-transferrin (330 μg/mL), heparin (2 IU/mL), r-human Insulin (10 μg/mL), rhEPO (3 IU/mL), rhSCF (100 ng/mL)+Dox (1 μg/mL) and 5% human plasma in low attachment flasks, which were placed in a 37° C. incubator with 5% CO2. After 48 hours, cell count and viability were measured by trypan blue exclusion using the Vi-cell XR cell viability analyzer. The HUDEP-2 ZBTB7A cells were transferred to a 50 mL conical, centrifuged at 500 g for five minutes and resuspended at a density of 1.0×10^6 cells/ml in IMDM media supplemented with L-Glutamine (1×), Penicillin-Streptomycin (50 U/mL), holo-transferrin (330 μg/mL), heparin (2 IU/mL), r-human Insulin (10 μg/mL), rhEPO (3 IU/mL), rhSCF (100 ng/mL)+Dox (1 μg/mL) and 5% human plasma. Forty microliters of cell suspension was dispensed into 384-well Low Flange White Flat Bottom Polystyrene TC-treated Microplates containing pre-dispensed compounds, using a VIAFLO 384 liquid hander, and placed in a 37° C. incubator with 5% CO2. […] After 24 hours of treatment, 40 μL Nano-Glo HiBiT Lytic Detection System reagent was dispensed into each well using a VIAFLO 384 liquid hander. Plates were incubated for 25 minutes at room temperature and the luminescence was read as relative luminescent units using the EnVision plate reader. EC50 and Y-min values were calculated using curves calculated from dotmatics software after the normalization to the DMSO control of 10 different concentrations: 10, 3.33, 1.11, 0.37, 0.12, 0.04 0.0137, 0.0046, 0.0015 and 0.0005 μM respectively.

WIZ (Widely interspaced zinc finger), sequence (O95785 whole entry, the tested form may be a part): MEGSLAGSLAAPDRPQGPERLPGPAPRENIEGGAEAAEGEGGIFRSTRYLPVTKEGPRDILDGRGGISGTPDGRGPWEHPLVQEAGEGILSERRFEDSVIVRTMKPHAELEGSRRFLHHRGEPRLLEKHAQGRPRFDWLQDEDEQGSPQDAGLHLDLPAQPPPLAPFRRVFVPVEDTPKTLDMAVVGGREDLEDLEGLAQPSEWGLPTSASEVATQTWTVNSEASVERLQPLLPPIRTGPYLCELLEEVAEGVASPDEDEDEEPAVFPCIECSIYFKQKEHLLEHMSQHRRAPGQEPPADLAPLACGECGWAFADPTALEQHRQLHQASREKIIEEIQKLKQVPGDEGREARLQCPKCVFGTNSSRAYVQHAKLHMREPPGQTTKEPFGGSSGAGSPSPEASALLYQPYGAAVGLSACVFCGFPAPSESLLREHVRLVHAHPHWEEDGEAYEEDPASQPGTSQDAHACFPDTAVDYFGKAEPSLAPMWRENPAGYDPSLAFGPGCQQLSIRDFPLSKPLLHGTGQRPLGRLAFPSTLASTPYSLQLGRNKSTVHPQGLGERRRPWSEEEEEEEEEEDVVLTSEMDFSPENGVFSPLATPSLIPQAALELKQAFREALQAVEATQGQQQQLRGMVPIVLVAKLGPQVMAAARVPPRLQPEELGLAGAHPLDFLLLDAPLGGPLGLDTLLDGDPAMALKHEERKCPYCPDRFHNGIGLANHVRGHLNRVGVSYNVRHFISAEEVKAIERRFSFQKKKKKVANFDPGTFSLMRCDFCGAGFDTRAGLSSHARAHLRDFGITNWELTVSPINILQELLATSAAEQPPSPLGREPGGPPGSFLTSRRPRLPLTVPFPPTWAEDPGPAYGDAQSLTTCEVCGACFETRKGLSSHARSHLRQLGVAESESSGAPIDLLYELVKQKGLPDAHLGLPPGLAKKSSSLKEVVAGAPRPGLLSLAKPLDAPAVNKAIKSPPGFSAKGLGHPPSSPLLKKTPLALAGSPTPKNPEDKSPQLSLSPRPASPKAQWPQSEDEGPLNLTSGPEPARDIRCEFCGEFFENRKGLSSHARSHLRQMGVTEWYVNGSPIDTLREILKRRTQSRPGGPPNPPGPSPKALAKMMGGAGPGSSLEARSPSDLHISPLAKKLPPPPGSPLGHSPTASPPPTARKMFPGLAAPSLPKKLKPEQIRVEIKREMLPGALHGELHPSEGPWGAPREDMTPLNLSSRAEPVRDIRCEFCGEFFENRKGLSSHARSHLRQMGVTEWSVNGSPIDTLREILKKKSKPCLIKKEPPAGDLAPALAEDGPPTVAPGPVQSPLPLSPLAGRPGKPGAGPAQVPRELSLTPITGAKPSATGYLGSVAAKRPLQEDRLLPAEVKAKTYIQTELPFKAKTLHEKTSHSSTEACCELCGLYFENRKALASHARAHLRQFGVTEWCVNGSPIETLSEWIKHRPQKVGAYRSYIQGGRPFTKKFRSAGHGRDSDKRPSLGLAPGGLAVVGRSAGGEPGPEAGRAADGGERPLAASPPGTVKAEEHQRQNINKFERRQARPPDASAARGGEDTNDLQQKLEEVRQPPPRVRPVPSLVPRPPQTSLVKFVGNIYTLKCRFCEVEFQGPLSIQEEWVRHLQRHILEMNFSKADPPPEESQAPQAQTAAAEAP
WIZ (Widely interspaced zinc finger), sequence (Q96SW2 whole entry, the tested form may be a part): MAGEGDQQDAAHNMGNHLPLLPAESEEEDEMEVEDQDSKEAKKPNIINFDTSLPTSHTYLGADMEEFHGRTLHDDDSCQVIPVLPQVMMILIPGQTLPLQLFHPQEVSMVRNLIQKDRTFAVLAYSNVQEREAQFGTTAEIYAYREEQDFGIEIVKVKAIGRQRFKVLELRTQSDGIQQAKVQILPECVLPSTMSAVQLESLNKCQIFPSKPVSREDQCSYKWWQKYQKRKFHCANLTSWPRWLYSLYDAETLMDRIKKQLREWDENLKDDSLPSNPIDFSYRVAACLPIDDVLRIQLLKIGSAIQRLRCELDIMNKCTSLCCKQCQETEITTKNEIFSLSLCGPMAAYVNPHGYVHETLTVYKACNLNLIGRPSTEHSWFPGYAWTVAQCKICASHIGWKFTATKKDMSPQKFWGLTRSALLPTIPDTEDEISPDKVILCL
WIZ (Widely interspaced zinc finger), sequence (Q16531 whole entry partner, the tested form may be a part): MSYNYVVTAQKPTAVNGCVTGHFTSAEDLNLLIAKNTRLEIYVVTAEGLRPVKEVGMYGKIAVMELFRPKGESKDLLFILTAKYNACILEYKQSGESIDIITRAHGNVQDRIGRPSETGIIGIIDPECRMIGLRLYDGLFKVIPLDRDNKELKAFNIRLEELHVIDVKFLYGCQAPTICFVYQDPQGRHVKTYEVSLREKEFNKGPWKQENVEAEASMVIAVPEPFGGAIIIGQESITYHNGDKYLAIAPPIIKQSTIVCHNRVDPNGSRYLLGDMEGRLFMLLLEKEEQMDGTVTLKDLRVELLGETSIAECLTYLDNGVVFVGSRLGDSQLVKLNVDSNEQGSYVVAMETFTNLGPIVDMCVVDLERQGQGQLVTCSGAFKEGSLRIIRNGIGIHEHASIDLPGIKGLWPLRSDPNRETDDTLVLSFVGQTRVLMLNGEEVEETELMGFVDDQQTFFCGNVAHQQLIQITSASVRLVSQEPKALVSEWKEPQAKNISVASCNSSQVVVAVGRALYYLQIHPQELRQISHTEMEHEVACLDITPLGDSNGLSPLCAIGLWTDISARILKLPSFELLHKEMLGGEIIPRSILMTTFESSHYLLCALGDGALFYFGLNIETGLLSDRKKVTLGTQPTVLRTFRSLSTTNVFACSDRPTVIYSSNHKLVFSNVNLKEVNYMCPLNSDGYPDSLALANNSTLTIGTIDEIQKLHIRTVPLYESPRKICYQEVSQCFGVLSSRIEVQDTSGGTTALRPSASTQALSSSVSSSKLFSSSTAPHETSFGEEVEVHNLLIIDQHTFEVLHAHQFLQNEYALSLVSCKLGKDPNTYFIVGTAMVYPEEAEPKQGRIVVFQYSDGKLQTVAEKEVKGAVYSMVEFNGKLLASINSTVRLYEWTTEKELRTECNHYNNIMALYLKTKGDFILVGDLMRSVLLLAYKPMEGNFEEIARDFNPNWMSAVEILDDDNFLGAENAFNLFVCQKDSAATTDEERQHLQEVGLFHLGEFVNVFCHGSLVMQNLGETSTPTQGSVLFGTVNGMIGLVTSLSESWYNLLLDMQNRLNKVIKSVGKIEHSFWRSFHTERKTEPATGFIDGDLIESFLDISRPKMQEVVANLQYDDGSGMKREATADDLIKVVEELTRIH
ZBTB7A (Zinc Finger And BTB Domain Containing 7A), sequence (O95365 whole entry, the tested form may be a part): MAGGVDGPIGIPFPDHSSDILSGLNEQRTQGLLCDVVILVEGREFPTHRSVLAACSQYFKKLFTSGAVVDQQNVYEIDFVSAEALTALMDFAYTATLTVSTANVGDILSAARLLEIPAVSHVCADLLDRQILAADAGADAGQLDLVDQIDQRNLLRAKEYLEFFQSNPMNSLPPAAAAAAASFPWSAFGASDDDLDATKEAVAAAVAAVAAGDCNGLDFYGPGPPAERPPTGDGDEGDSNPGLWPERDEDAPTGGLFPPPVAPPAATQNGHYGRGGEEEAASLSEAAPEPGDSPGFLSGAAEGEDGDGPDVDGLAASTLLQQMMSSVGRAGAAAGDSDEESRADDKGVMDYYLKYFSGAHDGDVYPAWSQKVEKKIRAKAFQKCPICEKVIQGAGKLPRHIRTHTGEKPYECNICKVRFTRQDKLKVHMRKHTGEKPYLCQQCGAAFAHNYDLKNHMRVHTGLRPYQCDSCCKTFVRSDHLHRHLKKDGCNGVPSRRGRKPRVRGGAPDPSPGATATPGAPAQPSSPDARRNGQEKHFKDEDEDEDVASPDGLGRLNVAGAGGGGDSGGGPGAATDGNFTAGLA
ZBTB7A (Zinc Finger And BTB Domain Containing 7A), sequence (Q96SW2 whole entry, the tested form may be a part): as the sequence (Q96SW2 whole entry, the tested form may be a part) above
ZBTB7A (Zinc Finger And BTB Domain Containing 7A), sequence (Q16531 whole entry partner, the tested form may be a part): as the sequence (Q16531 whole entry partner, the tested form may be a part) above

SMILES: CN(C)CCOc1cc(Oc2ccccc2)c(Nc2cccc3c2C(=O)N(C2CCC(=O)NC2=O)C3=O)cn1 (stereo not drawn) [Compound 9, 4-((6-(2-(dimethylamino)ethoxy)-4-phenoxypyridin-3-yl)amino)-2-(2,6-dioxopiperidin-3-yl)isoindoline-1,3-dione]
- activation at 1 µM [1]: 66 to 100%
- EC50 [2]: < 10 nM
- DC50 [3]: 30 to 100 nM

SMILES: CN(C)C1CCc2ccc(Nc3cccc4c3C(=O)N([C@@]3(C)CCC(=O)NC3=O)C4=O)cc21 (stereo partly drawn) [Compound 31, 4-((3-(dimethylamino)-2,3-dihydro-1H-inden-5-yl)amino)-2-((S)-3-methyl-2,6-dioxopiperidin-3-yl)isoindoline-1,3-dione]
- activation at 1 µM [1]: 33 to 66%
- DC50 [2]: 10 to 100 nM
- EC50 [3]: > 100 nM

SMILES: Cn1ncc2cc(Nc3cccc4c3C(=O)N(C3CCC(=O)NC3=O)C4=O)c(Oc3ccccc3)cc21 (stereo not drawn) [Compound 15, 2-(2,6-dioxopiperidin-3-yl)-4-((1-methyl-6-phenoxy-1H-indazol-5-yl)amino)isoindoline-1,3-dione]
- activation at 1 µM [1]: 66 to 100%
- EC50 [2]: < 10 nM
- DC50 [3]: 30 to 100 nM

SMILES: COc1cc(-c2ccccc2)c(Nc2cccc3c2C(=O)N(C2CCC(=O)NC2=O)C3=O)cn1 (stereo not drawn) [Compound 30, 2-(2,6-dioxopiperidin-3-yl)-4-((6-methoxy-4-phenylpyridin-3-yl)amino)isoindoline-1,3-dione]
- activation at 1 µM [1]: < 33%
- DC50 [2]: 10 to 100 nM
- DC50 [3]: 30 to 100 nM

SMILES: Cc1cc(-c2cc3c(cc2Nc2cccc4c2C(=O)N([C@H]2CCC(=O)NC2=O)C4=O)N(C)C(=O)CC3)ccn1 [Compound 32, (S)-2-(2,6-dioxopiperidin-3-yl)-4-((1-methyl-6-(2-methylpyridin-4-yl)-2-oxo-1,2,3,4-tetrahydroquinolin-7-yl)amino)isoindoline-1,3-dione]
- activation at 1 µM [1]: 66 to 100%
- EC50 [2]: < 10 nM
- DC50 [3]: 30 to 100 nM

SMILES: O=C1CCC(N2C(=O)c3cccc(Nc4cc5cnn(C6CCOCC6)c5cc4C4CC4)c3C2=O)C(=O)N1 (stereo not drawn) [Compound 10, 4-((6-cyclopropyl-1-(tetrahydro-2H-pyran-4-yl)-1H-indazol-5-yl)amino)-2-(2,6-dioxopiperidin-3-yl)isoindoline-1,3-dione]
- activation at 1 µM [1]: 66 to 100%
- EC50 [2]: < 10 nM
- EC50 [3]: > 100 nM

SMILES: Cc1cc(-c2cc3c(cc2Nc2cccc4c2C(=O)N([C@H]2CCC(=O)NC2=O)C4=O)n(C)c(=O)n3C)cc(C)n1 [Compound 40, (S)-4-((6-(2,6-dimethylpyridin-4-yl)-1,3-dimethyl-2-oxo-2,3-dihydro-1H-benzo[d]imidazol-5-yl)amino)-2-(2,6-dioxopiperidin-3-yl)isoindoline-1,3-dione]
- activation at 1 µM [1]: 66 to 100%
- EC50 [2]: < 10 nM
- EC50 [3]: < 30 nM

SMILES: Cc1cc(-c2cc3onc(C)c3cc2Nc2cccc3c2C(=O)N(C2CCC(=O)NC2=O)C3=O)ccn1 (stereo not drawn) [Compound 8, 2-(2,6-dioxopiperidin-3-yl)-4-((3-methyl-6-(2-methylpyridin-4-yl)benzo[d]isoxazol-5-yl)amino)isoindoline-1,3-dione]
- activation at 1 µM [1]: 66 to 100%
- DC50 [2]: 10 to 100 nM
- DC50 [3]: 30 to 100 nM

SMILES: COc1cc2c(cnn2C2CCOCC2)cc1Nc1cccc2c1C(=O)N(C1CCC(=O)NC1=O)C2=O (stereo not drawn) [Compound 18, 2-(2,6-dioxopiperidin-3-yl)-4-((6-methoxy-1-(tetrahydro-2H-pyran-4-yl)-1H-indazol-5-yl)amino)isoindoline-1,3-dione]
- activation at 1 µM [1]: 66 to 100%
- EC50 [2]: < 10 nM
- DC50 [3]: 30 to 100 nM

SMILES: Cc1cc(-c2cc3c(cnn3C3CCOCC3)cc2Nc2cccc3c2C(=O)N(C2CCC(=O)NC2=O)C3=O)ccn1 (stereo not drawn) [Compound 4, 2-(2,6-dioxopiperidin-3-yl)-4-((6-(2-methylpyridin-4-yl)-1-(tetrahydro-2H-pyran-4-yl)-1H-indazol-5-yl)amino)isoindoline-1,3-dione]
- activation at 1 µM [1]: 66 to 100%
- DC50 [2]: 10 to 100 nM
- DC50 [3]: 30 to 100 nM

SMILES: Cn1ncc2cc(Nc3cccc4c3C(=O)N(C3CCC(=O)NC3=O)C4=O)c(C3CCOCC3)cc21 (stereo not drawn) [Compound 22, 2-(2,6-dioxopiperidin-3-yl)-4-((1-methyl-6-(tetrahydro-2H-pyran-4-yl)-1H-indazol-5-yl)amino)isoindoline-1,3-dione]
- activation at 1 µM [1]: 33 to 66%
- DC50 [2]: 10 to 100 nM
- EC50 [3]: > 100 nM

SMILES: O=C1CCC(N2C(=O)c3cccc(Nc4c(Oc5ccccc5Cl)ccc5c4cnn5C4CCOCC4)c3C2=O)C(=O)N1 (stereo not drawn) [Compound 13, 4-((5-(2-chlorophenoxy)-1-(tetrahydro-2H-pyran-4-yl)-1H-indazol-4-yl)amino)-2-(2,6-dioxopiperidin-3-yl)isoindoline-1,3-dione]
- activation at 1 µM [1]: 66 to 100%
- DC50 [2]: 10 to 100 nM
- DC50 [3]: 30 to 100 nM
